Source: patent US10919896B2, “Preparation and uses of pyrimidinone derivatives” (Cancer Research Technology Limited, priority 2016, dated 2021)

target: Cdc7/ASK (Homo sapiens, UniProt O00311); assay: Cdc7 Biochemical Assay Method 1: 384 well ELISA, whole protein substrate MCM2, antibody against Phospho MCM2 (S53); design: purchased; details: 2 μM ATP, read-out: Biochemical Method 1 (pIC50) (converted)
Summary of the method: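 MCM2 protein substrate was coated on nickel-chelate plates, then Cdc7/ASK was added with 2 μM ATP in 50 mM Tris-HCl pH 8.5, 10 mM MgCl2, 1 mM DTT, 4% DMSO, 90 min at room temperature. Phospho-MCM2 (S53) was detected by ELISA with an AP secondary and PNPP absorbance. IC50 was derived from % inhibition versus no-compound and no-enzyme controls.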

Cdc7/ASK, sequence (O00311 whole entry): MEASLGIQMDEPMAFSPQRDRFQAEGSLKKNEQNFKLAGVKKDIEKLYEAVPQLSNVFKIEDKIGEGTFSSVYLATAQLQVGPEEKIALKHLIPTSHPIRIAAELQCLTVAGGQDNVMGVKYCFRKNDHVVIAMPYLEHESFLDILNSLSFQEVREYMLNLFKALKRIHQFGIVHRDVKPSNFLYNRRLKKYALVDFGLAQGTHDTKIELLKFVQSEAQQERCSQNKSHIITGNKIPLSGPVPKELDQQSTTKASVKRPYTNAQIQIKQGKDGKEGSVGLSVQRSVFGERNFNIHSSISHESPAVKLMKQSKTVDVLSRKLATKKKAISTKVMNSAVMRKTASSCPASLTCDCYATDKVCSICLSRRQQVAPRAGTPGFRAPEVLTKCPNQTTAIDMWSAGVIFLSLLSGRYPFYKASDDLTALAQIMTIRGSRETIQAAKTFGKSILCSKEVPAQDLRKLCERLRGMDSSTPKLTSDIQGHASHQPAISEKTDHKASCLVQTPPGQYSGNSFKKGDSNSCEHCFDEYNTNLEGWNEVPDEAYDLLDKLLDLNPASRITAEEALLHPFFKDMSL
Cdc7/ASK, sequence (Q9UBU7 whole entry partner): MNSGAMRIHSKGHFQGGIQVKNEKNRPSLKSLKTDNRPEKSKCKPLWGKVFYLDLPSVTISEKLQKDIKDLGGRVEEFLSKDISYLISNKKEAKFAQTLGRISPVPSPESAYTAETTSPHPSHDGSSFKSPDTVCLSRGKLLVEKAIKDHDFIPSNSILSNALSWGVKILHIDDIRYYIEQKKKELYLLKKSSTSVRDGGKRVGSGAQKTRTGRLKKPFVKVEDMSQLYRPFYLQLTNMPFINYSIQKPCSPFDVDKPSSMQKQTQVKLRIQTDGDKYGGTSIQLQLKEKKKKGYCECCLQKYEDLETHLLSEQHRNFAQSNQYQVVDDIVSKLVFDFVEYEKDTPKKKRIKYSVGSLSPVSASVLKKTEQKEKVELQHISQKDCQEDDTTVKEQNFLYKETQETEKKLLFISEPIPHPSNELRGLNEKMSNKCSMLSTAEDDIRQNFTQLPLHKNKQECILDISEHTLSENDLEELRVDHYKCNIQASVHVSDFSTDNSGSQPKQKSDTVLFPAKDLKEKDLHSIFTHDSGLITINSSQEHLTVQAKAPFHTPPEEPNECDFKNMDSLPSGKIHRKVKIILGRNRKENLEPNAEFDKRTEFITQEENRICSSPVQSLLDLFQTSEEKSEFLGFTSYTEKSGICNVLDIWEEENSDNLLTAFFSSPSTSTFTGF

Structure (SMILES)	IC50 [nM]
O=c1[nH]c(-c2ccncc2)nc(N2CCCOCC2)c1Cl [Compound 186]	3.09
O=c1[nH]c(-c2ccncc2)nc(N2CCN(CC(F)F)CC2)c1Cl [Compound 147]	4.27
CC(C)[C@H]1CN(c2nc(-c3ccncc3)[nH]c(=O)c2F)CCN1 [Compound 308]	0.794
C[C@@H]1CNCCN1c1nc(-c2ccncc2)[nH]c(=O)c1Cl [Compound 364]	0.389
O=c1[nH]c(-c2ccncc2)nc(N2CCN[C@H](C(F)(F)F)C2)c1Cl [Compound 139]	9.55
O=c1[nH]c(-c2ccncc2)nc(N2CCN[C@@H](C(F)(F)F)C2)c1Cl [Compound 180]	1.45
CC(C)(C)[C@H]1CN(c2nc(-c3ccncc3)[nH]c(=O)c2F)CCN1 [Compound 185]	0.776
C[C@H]1CN(c2nc(-c3ccncc3)[nH]c(=O)c2Cl)CCN1 [Compound 130]	2.57

The remaining lines, values ahead:

IC50 [nM]	Structure (SMILES)
1.51	O=c1[nH]c(-c2ccnc(F)c2)nc(N2CCNCC2)c1Cl [Compound 360]
1.1	CC(C)[C@H]1CN(c2nc(-c3ccnc(F)c3)[nH]c(=O)c2Cl)CCN1 [Compound 170]
1.32	O=c1[nH]c(-c2ccnc(F)c2)nc(N2CCOCC2)c1Cl [Compound 316]
4.68	NC[C@@H]1CCCN(c2nc(-c3ccnc(F)c3)[nH]c(=O)c2Cl)C1 [Compound 363]
1.12	O=c1[nH]c(-c2ccnc(F)c2)nc(N2CCN[C@@H](C(F)(F)F)C2)c1Cl [Compound 314]
0.851	O=c1[nH]c(-c2ccnc(F)c2)nc(N2CCCC(F)(F)C2)c1Cl [Compound 90, 5-chloro-4-(3,3-difluoro-1-piperidyl)-2-(2-fluoro-4-pyridyl)-1H-pyrimidin-6-one]
1.66	NC[C@H]1CCCN(c2nc(-c3ccnc(F)c3)[nH]c(=O)c2Cl)C1 [Compound 362]
